From patent publication US20170293715A1, “SYSTEMS, METHODS AND SOFTWARE FOR RANKING POTENTIAL GEROPROTECTIVE DRUGS” (Insilico Medicine, Inc., priority 2014, published 2017) come the findings set out here.

SMILES strings stand for the structures. Values joined by “and” are separate entries in the source; they are usually repeats but may differ in a detail not shown here. Identical values can stand only once.

Holding throughout (format): cell-based
The subject of assay [1] is AHR signaling pathway. Nature of the assay: PAS score of AHR pathway in late-passage human fibroblasts cultured with putative geroprotectors. The following applies: 48 hours, aged human fibroblasts (aliquot C) vs aliquot A control. The procedure:
(§1) PASp=ΣNIInp×ARRnp×BTIFn×lg(CNRn)
(§2) The culture of human fibroblasts was isolated from skin of a healthy adult donor and cultured for five passages in DMEM/F12 medium supplemented by 10% FBS. The tissue sample was obtained with the written consent of a donor according to EU and local ethical guidelines. An aliquot containing ˜10 million cells was frozen in liquid nitrogen (aliquot A), whereas the remaining part of the cell culture was grown for 20 additional passages in the same medium. The cells were then harvested and stored in liquid nitrogen (aliquot B). Aliquot B cells were then cultured for two additional passages and then cultured for 48 hours in the presence of four putative geroprotector drugs. The resulting cells were harvested (aliquot C). The transcriptomes of the aliquots A, B and C were investigated with the Illumina HT12 v4 gene expression microarrays (Illumina, USA). In such a way we profiled expression of the genes implicated in the functioning of the following ten signaling pathways: AHR, AKT, Circadian, DNA repair mechanisms, EGFR, ERK signaling, Estrogen pathway, FLT3, Growth hormone, Hedgehog.
(§3) Zero PAS value means identical signaling pathway activation pattern in the older (aliquots B and C) and younger (aliquot A) fibroblasts.

Assay [2] deals with Circadian signaling pathway. Nature of the assay: PAS score of Circadian pathway in late-passage human fibroblasts cultured with putative geroprotectors. The following applies: 48 hours, aged human fibroblasts (aliquot C) vs aliquot A control. On the procedure:
as §1, §2, §3

The test system of assay [3] is FLT3 signaling pathway. Briefly: PAS score of FLT3 pathway in late-passage human fibroblasts cultured with putative geroprotectors. More on the design: unit of the concentration uncertain. The following applies: 48 hours, aged human fibroblasts (aliquot C) vs aliquot A control. On the procedure: as §1, §2, §3
In assay [4] the test system is Hedgehog signaling pathway. Briefly: PAS score of Hedgehog pathway in late-passage human fibroblasts cultured with putative geroprotectors. More on the design: unit of the concentration uncertain. The settings on record: 48 hours, aged human fibroblasts (aliquot C) vs aliquot A control. The procedure: as §1
The culture of human fibroblasts was isolated from skin of a healthy adult donor and cultured for five passages in DMEM/F12 medium supplemented by 10% FBS. The tissue sample was obtained with the written consent of a donor according to EU and local ethical guidelines. An aliquot containing ˜10 million cells was frozen in liquid nitrogen (aliquot A), whereas the remaining part of the cell culture was grown for 20 additional passages in the same medium. The cells were then harvested and stored in liquid nitrogen (aliquot B). Aliquot B cells were then cultured for two additional passages and then cultured for 48 hours in the presence of four putative geroprotector drugs. The resulting cells were harvested (aliquot C). The transcriptomes of the aliquots A, B and C were investigated with the Illumina HT12 v4 gene expression microarrays (Illumina, USA). In such a way we profiled expression of the genes implicated in the functioning of the following ten signaling pathways: AHR, AKT, Circadian, DNA repair mechanisms, EGFR, ERK signaling, Estrogen pathway, FLT3, Growth hormone, Hedgehog. The information about pathway configuration and functional roles of the individual genes was taken from the public database provided by SABiosciences (SABiosciences, a Qiagen company. Using Student statistical criterion and a threshold p-value <0.05, we identified a list of the differential genes and calculated for them CNRn values. The set of gene expression data corresponding to the “aliquot A” group of samples was taken as the control. The data were processed with the algorithm for the calculation of PAS, and the following pathway activation data were obtained (Table 9).
Zero PAS value means identical signaling pathway activation pattern in the older (aliquots B and C) and younger (aliquot A) fibroblasts. […] The present invention proposes ranking of the geroprotector drugs according to their ability to compensate aging-related differences in signaling pathway activation reflected by the PAS values.

For assay [5], the system named is human skin fibroblasts. Briefly: Reversion of PAS patterns to the younger state, ranking of geroprotectors. The procedure: (§4) The culture of human fibroblasts was isolated from skin of a healthy adult donor and cultured for five passages in DMEM/F12 medium supplemented by 10% FBS. The tissue sample was obtained with the written consent of a donor according to EU and local ethical guidelines. An aliquot containing ˜10 million cells was frozen in liquid nitrogen (aliquot A), whereas the remaining part of the cell culture was grown for 20 additional passages in the same medium. The cells were then harvested and stored in liquid nitrogen (aliquot B). Aliquot B cells were then cultured for two additional passages and then cultured for 48 hours in the presence of four putative geroprotector drugs. The resulting cells were harvested (aliquot C). […] The information about pathway configuration and functional roles of the individual genes was taken from the public database provided by SABiosciences (SABiosciences, a Qiagen company. Using Student statistical criterion and a threshold p-value <0.05, we identified a list of the differential genes and calculated for them CNRn values. The set of gene expression data corresponding to the “aliquot A” group of samples was taken as the control. The data were processed with the algorithm for the calculation of PAS, and the following pathway activation data were obtained (Table 9). […]

Assay [6] concerns DNA repair mechanisms. Briefly: PAS score of DNA repair pathway in late-passage human fibroblasts cultured with putative geroprotectors. The settings on record: 1 mM, 48 hours, aged human fibroblasts (aliquot C) vs aliquot A control. On the procedure: as §1, §4
Assay [7] relates to Growth hormone (GH) signaling pathway. Nature of the assay: PAS score of Growth hormone pathway in late-passage human fibroblasts cultured with putative geroprotectors. The following applies: 1 mM, 48 hours, aged human fibroblasts (aliquot C) vs aliquot A control. On the procedure: as §1, §4

For `O=C(O)c1nn(Cc2ccc(Cl)cc2Cl)c2ccccc12` [Lonidamine], the “PAS AHR” value in assay [1] (5 mM) was 2 and 4. Further, the “PAS Circadian” value in assay [2] (5 mM) is 5 and 7. For the same compound, in assay [3] (5 (unit uncertain)), the “PAS FLT3” value is on record as −1. Besides, the “PAS Hedgehog” value in assay [4] (5 (unit uncertain)) is 17 and 22.
On to `Oc1ccc(C=Cc2cc(O)cc(O)c2)cc1` [Resveratrol], for which the “PAS Circadian” value in assay [2] (1 mM) is 4. In addition, the “PAS FLT3” value in assay [3] (1 (unit uncertain)) came out at 2. For the same compound, the “PAS Hedgehog” value in assay [4] (1 (unit uncertain)) was 9 and 11. Further, in assay [5] (1 mM, of the ten pathways tested), the “pathways whose PAS patterns were better reverted to the younger state” value is reported as 7/10. For the same compound, the “ranking as geroprotector among the four tested” value in assay [5] (combined experimental and biomathematical system) is given as “best putative geroprotector drug”.
For `NCCCCNCCCN` [Spermidine], the “PAS AHR” value in assay [1] (1 mM) is 3 and 2. The “PAS Circadian” value in assay [2] (1 mM) was 5 and 8. Moreover, in assay [6], the “PAS DNA repair” value is reported as −10. Besides, the “PAS GH” value in assay [7] is recorded as −9. In addition, the “PAS Hedgehog” value in assay [4] (1 (unit uncertain)) is 17 and 18.
Take `COC[C@H]1OC(=O)c2coc3c2[C@@]1(C)C1=C(C3=O)[C@@H]2CCC(=O)[C@@]2(C)C[C@H]1OC(C)=O` [Wortmannin]: the “PAS AHR” value in assay [1] (0.5 mM) was 1 and 2. Besides, the “PAS Circadian” value in assay [2] (0.5 mM) is 6 and 5. Further, in assay [4] (0.5 (unit uncertain)), the “PAS Hedgehog” value is 12 and 10.
